Like-named read-outs stand apart in the source and are kept apart here.
Columns and labels:
[1] = feed intake of horses on sudden or gradual introduction of virginiamycin (Founderguard); assay type: in vivo
Protocol: The aim of the experiment was to determine if there is a depression in feed intake when horses are first given Founderguard at the recommended dose rate of 0.5 mg virginiamycin per kg body weight per day, and whether a gradual or sudden introduction of Founderguard has different effects on feed intake during the introductory period.
Five horses of mixed ages and sexes were used in the experiment. All horses were treated against intestinal parasites prior to the Control period.
Open air feeding stalls approximately 2.5 m square were prepared with ground-level hay feeders, car tyre bucket-holders for feeding grain and a water trough shared between two stalls. Horses entered the stalls around 7.00 AM each day and were let out for exercise around 5.00 PM. […]
All the oats offered were consumed. Intake of all feed was measured on an ‘as-fed’ basis. […] While not measured objectively the quality of hay used in Period 2 was considered to be of higher quality than that used in Period 1. The effect of treatment on feed intake for each horse was calculated each day as a percentage of the mean intake for that animal during the five days of ‘Control’ intake measurement. […]
Feed intake was measured for at least 5 days without Founderguard (control intake) before commencing the five day treatment period. […]

[2] = test system: lactic acid producing bacteria; test: in vitro function assay: lactic acid and pH after incubation of faecal/colonic samples from horses fed virginiamycin pellets; assay type: in vivo
Excerpt: Twelve horses were housed individually and fed 2.5 kg/d of a commercial horse concentrate each morning. Approximately 6 kg of medium quality lucerne hay was fed after animals had consumed the concentrate.
The experiment was run in three periods with 4 animals in the stables during each period. Each period lasted 12 days: five days to allow adaptation to the stables and the dietary regime, and then 7 days when medicated pellets containing different concentrations of virginiamycin were fed. Faecal samples were taken on the day before feeding medicated feed and then on days 2, 4 and 6 of feeding the medicated pellets.
The effectiveness of each dose rate and time on treatment was determined using an in vitro function assay to determine the amount of lactic acid produced during in vitro incubation of faecal material or samples taken from the distal colon. The fermentation of faecal material was carried out as follows. Fresh faecal material was obtained prior to the morning feed. Where warm material was available in the stable this was used, otherwise a rectal sample was obtained. A sub-sample of 150 g was mixed with an equal volume of distilled water and then strained through nylon gauze. Aliquots of supernatant were dispensed into 3 replicate tubes (4 ml/tube) and 1 ml of glucose solution (50 mg glucose/ml) was added before pricking the lid of the plastic vial with a 25 g needle and incubating for 20 to 24 hours at 37°. Following incubation the measurements of pH were made before centrifugation of a sub-sample prior to L-lactic acid analysis.
The results of the in vitro function assay are summarised in Tables 2 and 3 and represented graphically in FIG. 3. It is relevant to note that the level of glucose used in the in vitro incubations is effectively higher than any amount of carbohydrate which could be used in vivo. In the in vitro model, no volatile fatty acids are removed from the incubation flask through “absorption”.
The result of this is that the pH drops in vitro by more than it would in vivo and that a lactate-based fermentation develops more readily. It is therefore probably unrealistic to expect that lactate production can be completely controlled in this in vitro incubation model. Initially it was considered that the “baseline” in the in vitro model could be set around 10 mmol/L for an effective dose rate of virginiamycin. However, given the variable response around the 0.5 mg/kg dose rate in terms of lactic acid accumulation in the in vitro model it may be advisable to set a lower threshold for mean lactic acid concentration in determining the effective dose rate.

[3] = feed intake on introduction of virginiamycin into the diet (general statements); assay type: in vivo, sheep, cattle and horses
[4] = horses, very high concentrations (500 mg/kg complete feed); cited from earlier work
[5] = horse 1, 640 mg/d, 1.422 mg/kg, 2 days on medicated feed
[6] = horse 1, 640 mg/d, 1.422 mg/kg, 6 days on medicated feed
[7] = horse 2, 160 mg/d, 0.343 mg/kg, 2 days on medicated feed
[8] = horse 2, 160 mg/d, 0.343 mg/kg, 4 days on medicated feed
[9] = horse 3, 1280 mg/d, 2.639 mg/kg, 2 days on medicated feed
[10] = horse 3, 1280 mg/d, 2.639 mg/kg, 4 days on medicated feed
[11] = horse 3, 1280 mg/d, 2.639 mg/kg, 6 days on medicated feed
[12] = horse 4, 20 mg/d, 0.042 mg/kg, 2 days on medicated feed
[13] = horse 4, 20 mg/d, 0.042 mg/kg, 4 days on medicated feed
[14] = horse 4, 20 mg/d, 0.042 mg/kg, 6 days on medicated feed
[15] = horse 5, 160 mg/d, 0.359 mg/kg, 2 days on medicated feed
[16] = horse 5, 160 mg/d, 0.359 mg/kg, 4 days on medicated feed
[17] = horse 5, 160 mg/d, 0.359 mg/kg, 6 days on medicated feed
[18] = horse 6, 40 mg/d, 0.091 mg/kg, 2 days on medicated feed
[19] = horse 6, 40 mg/d, 0.091 mg/kg, 4 days on medicated feed
[20] = horse 7, 640 mg/d, 1.475 mg/kg, 2 days on medicated feed
[21] = horse 7, 640 mg/d, 1.475 mg/kg, 4 days on medicated feed
[22] = horse 7, 640 mg/d, 1.475 mg/kg, 6 days on medicated feed
[23] = horse 8, 80 mg/d, 0.154 mg/kg, 2 days on medicated feed
[24] = horse 8, 80 mg/d, 0.154 mg/kg, 6 days on medicated feed
[25] = horse 9, 80 mg/d, 0.180 mg/kg, 2 days on medicated feed
[26] = horse 9, 80 mg/d, 0.180 mg/kg, 4 days on medicated feed
[27] = horse 10, 320 mg/d, 0.702 mg/kg, 2 days on medicated feed
[28] = horse 10, 320 mg/d, 0.702 mg/kg, 4 days on medicated feed
[29] = horse 11, 160 mg/d, 0.432 mg/kg, 2 days on medicated feed
[30] = horse 11, 160 mg/d, 0.432 mg/kg, 6 days on medicated feed
[31] = horse 12, 320 mg/d, 0.693 mg/kg, 2 days on medicated feed
[32] = horse 12, 320 mg/d, 0.693 mg/kg, 6 days on medicated feed

## virginiamycin
[1]; gradual introduction over 4 days (25, 50, 75, 100% of complete dose)
  effect on feed intake: does not cause a depression in feed intake
[1]; sudden introduction of the full dose (0.5 mg/kg bodyweight per day)
  feed intake compared to pretreatment levels (day 0) and to gradual introduction: significant decrease in feed intake
[2]; 0.4 to 0.7 mg per kg bodyweight per day, after three to four days
  control of lactic acid production: partial and variable levels of controlling lactic acid production
[2]; 1.4 and 2.6 mg/kg body weight, 48 hours after first treatment
  control of lactic acid producing bacteria in faecal/colonic digesta: good control of lactic acid producing bacteria
[2]; 1.4 and 2.6 mg/kg body weight, days 4 and 6 as well as day 2
  capacity for lactic acid production: remained low
[2]; average of 0.4 and 0.7 mg/kg bodyweight per day, days 2, 4 and 6, response more variable and less complete than higher dose rates
  capacity for lactic acid production: reduction in capacity for lactic acid production
[2]; dose rates over 1.4 mg per kg body weight, after two days of treatment
  control of lactic acid production: almost complete control
[2]; [5]
  L-lactate concentration following incubation of faecal samples, Mean: 0 mmol/L
  pH measured following incubation of faecal samples, Mean: 5.11
[2]; [6]
  L-lactate concentration following incubation of faecal samples, Mean: 4 mmol/L
  pH measured following incubation of faecal samples, Mean: 4.94
[2]; [7]
  L-lactate concentration following incubation of faecal samples, Mean: 17 mmol/L
  pH measured following incubation of faecal samples, Mean: 4.61
[2]; [8]
  L-lactate concentration following incubation of faecal samples, Mean: 21 mmol/L
  pH measured following incubation of faecal samples, Mean: 4.76
[2]; horse 2, 160 mg/d, 0.343 mg/kg, 6 days on medicated feed
  L-lactate concentration following incubation of faecal samples, Mean: 12 mmol/L
[2]; [9]
  L-lactate concentration following incubation of faecal samples, Mean: 0 mmol/L
  pH measured following incubation of faecal samples, Mean: 4.43
[2]; [10]
  L-lactate concentration following incubation of faecal samples, Mean: 0 mmol/L
  pH measured following incubation of faecal samples, Mean: 4.71
[2]; [11]
  L-lactate concentration following incubation of faecal samples, Mean: 1 mmol/L
  pH measured following incubation of faecal samples, Mean: 4.59
[2]; [12]
  L-lactate concentration following incubation of faecal samples, Mean: 47 mmol/L
  pH measured following incubation of faecal samples, Mean: 3.63
[2]; [13]
  L-lactate concentration following incubation of faecal samples, Mean: 47 mmol/L
  pH measured following incubation of faecal samples, Mean: 4.02
[2]; [14]
  L-lactate concentration following incubation of faecal samples, Mean: 31 mmol/L
  pH measured following incubation of faecal samples, Mean: 4.28
[2]; [15]
  L-lactate concentration following incubation of faecal samples, Mean: 0 mmol/L
  pH measured following incubation of faecal samples, Mean: 4.48
[2]; [16]
  L-lactate concentration following incubation of faecal samples, Mean: 0 mmol/L
  pH measured following incubation of faecal samples, Mean: 4.73
[2]; [17]
  L-lactate concentration following incubation of faecal samples, Mean: 0 mmol/L
  pH measured following incubation of faecal samples, Mean: 5.09
[2]; [18]
  L-lactate concentration following incubation of faecal samples, Mean: 23 mmol/L
  pH measured following incubation of faecal samples, Mean: 4.11
[2]; [19]
  L-lactate concentration following incubation of faecal samples, Mean: 25 mmol/L
  pH measured following incubation of faecal samples, Mean: 4.11
[2]; horse 6, 40 mg/d, 0.091 mg/kg, 6 days on medicated feed
  L-lactate concentration following incubation of faecal samples, Mean: 24 mmol/L
[2]; [20]
  L-lactate concentration following incubation of faecal samples, Mean: 1 mmol/L
  pH measured following incubation of faecal samples, Mean: 4.85
[2]; [21]
  L-lactate concentration following incubation of faecal samples, Mean: 1 mmol/L
  pH measured following incubation of faecal samples, Mean: 4.64
[2]; [22]
  L-lactate concentration following incubation of faecal samples, Mean: 1 mmol/L
  pH measured following incubation of faecal samples, Mean: 4.67
[2]; [23]
  L-lactate concentration following incubation of faecal samples, Mean: 5 mmol/L
  pH measured following incubation of faecal samples, Mean: 4.41
[2]; [24]
  L-lactate concentration following incubation of faecal samples, Mean: 44 mmol/L
  pH measured following incubation of faecal samples, Mean: 4.36
[2]; [25]
  L-lactate concentration following incubation of faecal samples, Mean: 4 mmol/L
  pH measured following incubation of faecal samples, Mean: 4.83
[2]; [26]
  L-lactate concentration following incubation of faecal samples, Mean: 37 mmol/L
  pH measured following incubation of faecal samples, Mean: 4.25
[2]; horse 9, 80 mg/d, 0.180 mg/kg, 6 days on medicated feed
  L-lactate concentration following incubation of faecal samples, Mean: 29 mmol/L
[2]; [27]
  L-lactate concentration following incubation of faecal samples, Mean: 1 mmol/L
  pH measured following incubation of faecal samples, Mean: 4.67
[2]; [28]
  L-lactate concentration following incubation of faecal samples, Mean: 1 mmol/L
  pH measured following incubation of faecal samples, Mean: 5.06
[2]; horse 10, 320 mg/d, 0.702 mg/kg, 6 days on medicated feed
  L-lactate concentration following incubation of faecal samples, Mean: 15 mmol/L
[2]; [29]
  L-lactate concentration following incubation of faecal samples, Mean: 4 mmol/L
  pH measured following incubation of faecal samples, Mean: 4.54
[2]; [30]
  L-lactate concentration following incubation of faecal samples, Mean: 19 mmol/L
  pH measured following incubation of faecal samples, Mean: 4.12
[2]; [31]
  L-lactate concentration following incubation of faecal samples, Mean: 36 mmol/L
  pH measured following incubation of faecal samples, Mean: 3.85
[2]; [32]
  L-lactate concentration following incubation of faecal samples, Mean: 3 mmol/L
  pH measured following incubation of faecal samples, Mean: 4.93
[2]; horses, low dose rates such as 0.1 mg per kg bodyweight per day
  prevention of over production of lactic acid: may not be effective in preventing over production of lactic acid
[3]; gradually increasing doses
  feed intake compared to pre-medication levels: no detectable decrease in feed intake
[3]; sudden introduction of the full dose rate
  feed intake, average, of the pretreatment level: around 80%
[3]; sudden introduction to sheep, cattle or horses at 0.5 mg per kg body weight and above, or 20 g/tonne and above
  reduction of feed intake: ≥ 20%
[4]
  effect on feed intake: reduce feed intake

Source: patent US8173120B2, “Method of preventing reduced feed intake in animals and treatment of disease conditions” (Precision Nutrition Pty Ltd, priority 2005, dated 2012)
